Values joined by “and” are separate entries in the source; they are usually repeats but may differ in a detail not shown here. Equal values may be shown once. Read-outs that look alike come from different tables or passages of the source. Positions of bridges follow the written chain, without caps; N, C: chain ends. Non-standard residues stand in square brackets, D forms with d.
How the values were obtained:
Type in all cases: cell-based
[1] = tested on: PDGF-stimulated Erk1/Erk2 activation; experiment: Inhibition of PDGF-stimulated activation of MAPK Erk1/Erk2 (p44/p42) in NIH 3T3 cells; details: NIH 3T3, PDGF stimulated
Protocol: (§1) Starved NIII 3T3 cells (PDGF-BB and PDGF-AA), NIH 3T3 cells overexpressing either EGFR (EGF) or Flk-1 (VEGF) are pre-treated with the indicated concentrations of GFB-111 for 5 minutes before 10 minutes of stimulation with PDGF-BB (10 ng/ml), PDGF-AA (10 ng/ml), EGF (100 ng/ml) and VEGF (50 ng/ml). Cell lysates are run on SDS-PAGE gels, then transferred to nitrocellulose and Western blotted with anti-phosphotyrosine (4G 10) or anti-phosphorylated Erk1/Erk2 (New England Biolabs).
(§2) In other experiments, starved NIH 3T3 cells (PDGF-AA, PDGF-BB, aFGF, bFGF), NIH 3T3 cells overexpressing EGFR. IGF-1R or Flk-1 and the human breast carcinoma SkBr3 that overexpresses ErbB2 (HRGβ) are pretreated with GFB-111 (100 μM) for 5 min before 10 min stimulation with the indicated growth factors at the concentrations shown above and aFGF (10 ng/ml), bFGF (50 ng/ml), IGF-1 (50 ng/ml) and HRGβ (10 ng/ml). Cell lysates are then immunoblotted with anti-phospho Erk1/Erk2 as described above.

[2] = tested on: aFGF-stimulated MAP kinase activation of p42 and p44; experiment: Inhibition of aFGF stimulation of p42/p44 MAP kinase in NIH 3T3 cells; details: NIH 3T3
Protocol: as §2
The ability of growth factor binding agents in the library of growth factor binding agents to block an aFGF signal is measured by aFGF-stimulation of MAP kinase activation of p42 and p44 essentially as described above for VEGF. NIH 3T3 cells are used as the target cell. […] A preferred embodiment of the invention is a compound that binds to acidic fibroblast growth factor, of the general structure III, in which R is n-butyl, n-propyl, or benzyl, and X1, X2, X3, and X4 optionally comprise covalently attached cyclic peptide loops of the general structure II, wherein R1, R2, R3, and R4 are each amino acid side chains that define a tetrapeptide sequence, wherein said tetrapeptide is covalently attached at the amino and carboxy termini of said tetrapeptide to a 3-aminomethyl-5-aminobenzamide linking group, and wherein said tetrapeptide sequence is as given, for example, in Table 5.

[3] = tested on: PDGF-stimulated PDGFR tyrosine phosphorylation; experiment: Inhibition of PDGF-stimulated PDGFR tyrosine phosphorylation in NIH 3T3 cells (anti-phosphotyrosine Western blot); details: 5 min pretreatment, PDGF 10 ng/ml 10 min, read-out: (IC50) Inhibition PDGFR-Y-P
Protocol: Starved NIH 3T3 cells are pretreated with various growth factor binding agents (0-100 μM) for 5 min before stimulation with PDGF (10 ng/mL) for 10 min. The cells are then harvested and lysed, and the proteins from the lysates separated by SDS-PAGE and immunoblotted with an anti-phosphotyrosine antibody (4G10: Upstate Biotechnology, Lake Placid, N.Y.). The phosphotyrosine PDGF receptor bands are scanned, and the concentrations of growth factor binding molecules that inhibited the ability of PDGF to stimulate PDGFR tyrosine phosphorylation by 50% are determined.
as §1
A novel series of protein surface binding agents are prepared that bind PDGF and disrupt its signaling function. The molecules are composed of a central calix[4] arene scaffold to which is attached four peptide loop domains (FIG. 1). The peptide loop component is based on a cyclic hexapeptide in which two residues are replaced by a 3-aminomethylbenzoate dipeptide mimetic containing a 5-amino substituent for attachment to the scaffold. The resulting molecules (as shown in Table 1) contain a functionalized and variable surface approximately 500 Å^2 in area. Several peptide loop sequences are synthesized (Table 1) to provide molecular surfaces with negatively and positively charged as well as hydrophobic regions designed to bind to complementary areas on the target growth factor. To identify PDGF binding molecules from this library, a cell-based screening assay is developed with NIH 3T3 cells to detect molecules capable of blocking PDGF-BB-induced tyrosine autophosphorylation of the PDGF receptor. The ability of the identified molecules to bind PDGF-BB and inhibit interaction with its receptor is then confirmed biochemically. Starved NIH 3T3 cells are pretreated for 5 min with the synthetic molecules prior to stimulation with PDGF for 10 min. The effects of the molecules on PDGF-stimulated receptor tyrosine phosphorylation are determined by the antiphosphotyrosine Western blotting as described in Table 1. […] GFB-111 has four-fold symmetry containing 4 identical peptide loops with negative and hydrophobic residues, GlyAspGlyTyr (GDGY) (SEQ ID NO. 6), that are designed to be complementary to the PDGF surface involved in binding to PDGFR. The area of PDGF-BB that binds PDGFR is composed primarily of positive and hydrophobic residues.
Starved NIH 3T3 cells are pretreated with the various GFBs (0-100 μM) for 5 min. prior to stimulation with PDGF (10 ng/ml) for 10 min. The cells are then harvested lysed and the proteins from the lysates are separated by SDS-PAGE and immunoblotted with an anti-phosphotyrosine antibody (4G10, Upstate Biotechnology, Lake Placid, N.Y.). The phosphotyrosine PDGF receptor bands are scanned and the concentrations of GFBs that inhibit the ability of PDGF to stimulate PDGFR tyrosine phosphorylation by 50% are determined. Data for each compound is representative of at least two independent experiments. FIG. 1 illustrates the structure of growth factor binders. GFBs are synthesized as described by Park, H. D. et al., Protein surface recognition by synthetic receptors: A route to novel sub-micromolar inhibitors for chymotrypsin. J. Am. Chem. Soc. 121, 8-13 (1999); and Hamuro, Y. et al., A calixarene with four peptide loops: An antibody mimic for recognition of protein surfaces. Angew. Chemie Int. Ed. Engl. 36, 2680-2683 (1997), each herein incorporated by reference in its respective entirety.

[4] = tested on: VEGF-stimulated Flk-1 tyrosine phosphorylation; experiment: Inhibition of VEGF-stimulated Flk-1 tyrosine phosphorylation in Flk-1/3T3 cells; details: Flk-1/3T3, VEGF stimulated; read-out: (IC50) Inhibition Flk-1-Y-P
Protocol: as §1
(§3) In order to identify molecules that would bind vascular endothelial growth factor (VEGF), Flk-1/3T3 cell-based assay is used that relies on VEGF-stimulation of its receptor, Flk-1, tyrosine phosphorylation and subsequent MAP-kinase activation. The assay used herein identical to that used for PDGF, except that NIH 3T3 cells that overexpress Flk-1 are used. GFB-116, which has four identical loops with the sequence GKGK (SEQ ID NO. 10) is shown to be very potent and selective toward blocking the ability of VEGF to stimulate Flk-1 tyrosine phosphorylation and subsequent MAP-kinase activation as measured by phospho erk-1 and erk-2 also referred to in the Table as p42 and p44 (Table 4A). A preferred embodiment of the invention is a compound that binds to a vascular endothelial growth factor, of the general structure III (above) in which R is n-butyl, n-propyl, or benzyl, and X comprise covalently attached identical cyclic peptide loops wherein R1, R2, R3, and R4 are each amino acid side chains, as broadly defined above, that define a tetrapeptide sequence, wherein said tetrapeptide is covalently attached at the amino and carboxy termini of said tetrapeptide to 3-aminomethyl-5-aminobenzamide linking group, and wherein said tetrapeptide sequence is GKGK (SEQ ID NO. 10), GDGY (SEQ ID NO. 6), or functionally related derivatives thereof.

[5] = tested on: VEGF-stimulated MAP kinase activation; experiment: Inhibition of VEGF-stimulated MAP kinase (p42/p44, Erk2/Erk1) activation in Flk-1/3T3 cells; details: Flk-1/3T3, VEGF stimulated
Protocol: as §1, §2, §3

[6] = tested on: IGF-1 stimulated MAP kinase activation; experiment: Inhibition of IGF-1 stimulated MAP kinase (p42/p44) activation in IGFR/3T3 cells; details: 100 μM; IGFR/3T3, IGF-1 stimulated
Protocol: as §2
(§4) The ability of the GFB library to block the ability of IGF-1 to stimulate the IFG-1 R tyrosine phosphorylation and MAP kinase activation is evaluated using the cell assay described above with IGF-1R/3T3 cells as target cell. […] A preferred embodiment of the invention is a compound that binds to an insulin-like growth factor-1, of the general structure III, wherein R is n-butyl, n-propyl, or benzyl, and X1, X2, X3, and X4 optionally comprise identical cyclic peptide loops of the general structure II, and wherein R1, R2, R3, and R4 are each amino acid side chains that define a tetrapeptide sequence, wherein said tetrapeptide is covalently attached at the amino and carboxy termini of said tetrapeptide to a 3-aminomethyl-5-aminobenzamide linking group.

[7] = tested on: IGF-1 stimulated IGF-1R tyrosine phosphorylation; experiment: Inhibition of IGF-1 stimulated IGFR tyrosine phosphorylation in IGFR/3T3 cells; details: for % Inhibition at 100 μM IGF1R-Y-P: IGFR/3T3, IGF-1 stimulated
Protocol: as §4

[8] = tested on: EGF-stimulated EGFR tyrosine phosphorylation and Erk1/Erk2 activation; experiment: EGF-stimulated EGFR tyrosine phosphorylation and Erk1/Erk2 activation in NIH 3T3 cells overexpressing EGFR; details: GFB-111 at concentrations as high as 100 μM
Protocol: as §1

[9] = head p42/Erk2 (p42 for GFB-132 to 137), read-out: (IC50) Inhibition p42/Erk2
[10] = read-out: (IC50) Inhibition p44
[11] = read-out: (IC50) Inhibition p42

Molecule	IC50 [1, 9] [µM]	IC50 [1, 10] [µM]	Block of aFGF-stimulation of MAP kinase activation of p42 and p44 [2]	IC50 [3] [µM]	IC50 [4] [µM]	IC50 [5, 11] [µM]	IC50 [5, 10] [µM]	% Inhibition at 100 μM p42 [6]	% Inhibition at 100 μM p44 [6]	% Inhibition at 100 μM IGF1R-Y-P [7]	Effect on EGF-stimulated EGFR tyrosine phosphorylation and Erk1/Erk2 activation [8]	Blocking IGF-1 action ([7]; IGF-1R/3T3 cells)
GDGY [GFB-133]	3.2	3	very effective	0.8								
GDSD [GFB-113]	30			2.8	< 10	10	10	−31.4%	18.7%	−18.9%		
But-Calix scaffold with peptide loops 4-d-ADGD, (D-Ala)-Asp-Gly-Asp (SEQ ID NO. 3) ([dA]DGD; linker N-C via 3‑aminomethyl‑5‑aminobenzamide; also: peptide loops (4) attached to But-Calix scaffold) [GFB-108]	57			9	10	50	50	67.8%	80.1%			
GDDD [GFB-106]	33		very effective	8	< 10	< 10	< 10					
GDDG [GFB-127]	> 50		very effective	32				38.4% and 27.2%	61.6% and 74.4%	36.8% and 31.8%		
ADGD [GFB-112]	26			29	< 10	10	10	−7.6%	30.4%	0.6%		
GDFD [GFB-102]				> 500		> 100	> 100					
GDGD [GFB-107]	10			2.5	< 10			57.3%	59.7%			
GFGD [GFB-101]	> 500			> 500	> 100	> 100	> 100					
GDFD [GFB-105]	28			2.4	< 10	> 100	> 100			1.3%		
CNc1cc2c(Nc3cccc(Br)c3)ncnc2cn1 [PD158780, reference compound]											blocks	
GDDG [GFB-126]	4.6		very effective	1.9				63.9% and 47.0%	71.2% and 79.2%	51.7% and 51.0%		particularly effective
